Measurements: the NIST ThermoML archive (doi:10.1016/j.jct.2014.12.011)

Assay: mn = molality of the nth substance listed, in mol/kg
Conditions: 100 kPa, Liquid, Alternating current cell with electrodes

CCCCCCCCCC(=O)[O-].[Cs+] [cesium decanoate] + O
electrical conductivity [S/m]
Conditions | 278.15 K | 288.15 K | 298.15 K | 308.15 K | 318.15 K | 328.15 K
m1 = 0.00805 | 0.0479 | 0.0614 | 0.0757 | 0.091 | 0.107 | 0.123
m1 = 0.01759 | 0.101 | 0.13 | 0.161 | 0.193 | 0.227 | 0.261
m1 = 0.0274 | 0.151 | 0.197 | 0.241 | 0.29 | 0.342 | 0.396
m1 = 0.03769 | 0.207 | 0.261 | 0.323 | 0.39 | 0.46 | 0.533
m1 = 0.04818 | 0.261 | 0.327 | 0.404 | 0.487 | 0.575 | 0.667
m1 = 0.06109 | 0.316 | 0.405 | 0.502 | 0.604 | 0.713 | 0.824
m1 = 0.0725 | 0.3714 | 0.476 | 0.588 | 0.707 | 0.829 | 0.958
m1 = 0.08819 | 0.4405 | 0.564 | 0.696 | 0.835 | 0.988 | 1.147
m1 = 0.1027 | 0.5001 | 0.639 | 0.7914 | 0.954 | 1.121 | 1.3
m1 = 0.1172 | 0.554 | 0.715 | 0.883 | 1.06 | 1.24 | 1.44
m1 = 0.1325 | 0.6113 | 0.79 | 0.965 | 1.16 | 1.36 | 1.58
m1 = 0.153 | 0.697 | 0.875 | 1.07 | 1.28 | 1.514 | 1.76
m1 = 0.1705 | 0.7509 | 0.944 | 1.16 | 1.39 | 1.642 | 1.914
m1 = 0.1873 | 0.799 | 1.009 | 1.241 | 1.49 | 1.77 | 2.06
m1 = 0.2051 | 0.8512 | 1.08 | 1.33 | 1.604 | 1.9 | 2.211
m1 = 0.2256 | 0.914 | 1.16 | 1.438 | 1.735 | 2.05 | 2.39
m1 = 0.2463 | 0.976 | 1.25 | 1.542 | 1.86 | 2.207 | 2.57

CCCCCCCC(=O)[O-].[Na+] [sodium octanoate] + O
electrical conductivity [S/m]
Conditions | 278.15 K | 288.15 K | 298.15 K | 308.15 K | 318.15 K | 328.15 K
m1 = 0.04715 | 0.168 | 0.223 | 0.284 | 0.35 | 0.421 | 0.494
m1 = 0.0899 | 0.299 | 0.398 | 0.508 | 0.627 | 0.754 | 0.885
m1 = 0.132 | 0.416 | 0.555 | 0.709 | 0.876 | 1.06 | 1.242
m1 = 0.1699 | 0.5102 | 0.6723 | 0.856 | 1.06 | 1.28 | 1.522
m1 = 0.2149 | 0.606 | 0.797 | 1.02 | 1.27 | 1.538 | 1.845
m1 = 0.2635 | 0.6914 | 0.924 | 1.18 | 1.47 | 1.88 | 2.213
m1 = 0.3059 | – | 0.976 | 1.29 | 1.742 | 2.106 | 2.49
m1 = 0.3464 | – | 1.18 | 1.536 | 1.913 | 2.314 | 2.734
m1 = 0.3898 | – | 1.29 | 1.67 | 2.09 | 2.526 | 2.99
m1 = 0.4368 | 1.015 | 1.4 | 1.811 | 2.26 | 2.74 | 3.25
m1 = 0.4813 | 1.09 | 1.49 | 1.934 | 2.42 | 2.938 | 3.48
m1 = 0.5288 | 1.16 | 1.58 | 2.06 | 2.58 | 3.138 | 3.719
m1 = 0.5785 | 1.224 | 1.68 | 2.19 | 2.75 | 3.34 | 3.96
m1 = 0.63 | 1.29 | 1.77 | 2.317 | 2.912 | 3.545 | 4.205
m1 = 0.6829 | 1.35 | 1.87 | 2.45 | 3.08 | 3.75 | 4.448
m1 = 0.7337 | 1.412 | 1.96 | 2.57 | 3.236 | 3.94 | 4.68

CCCCCCCCCC(=O)[O-].[Na+] [sodium decanoate] + O
electrical conductivity [S/m]
Conditions | 278.15 K | 288.15 K | 298.15 K | 308.15 K | 318.15 K | 328.15 K
m1 = 0.01638 | 0.0626 | 0.083 | 0.106 | 0.131 | 0.157 | 0.184
m1 = 0.03189 | 0.116 | 0.155 | 0.198 | 0.244 | 0.292 | 0.344
m1 = 0.04823 | 0.17 | 0.226 | 0.288 | 0.356 | 0.428 | 0.504
m1 = 0.06109 | 0.21 | 0.279 | 0.357 | 0.441 | 0.53 | 0.625
m1 = 0.07519 | 0.2524 | 0.336 | 0.429 | 0.531 | 0.639 | 0.753
m1 = 0.09179 | 0.3003 | 0.399 | 0.5112 | 0.632 | 0.7605 | 0.896
m1 = 0.1079 | 0.344 | 0.459 | 0.584 | 0.719 | 0.865 | 1.021
m1 = 0.1249 | 0.388 | 0.5125 | 0.647 | 0.795 | 0.958 | 1.135
m1 = 0.1434 | 0.429 | 0.559 | 0.705 | 0.869 | 1.05 | 1.25
m1 = 0.1608 | 0.46 | 0.599 | 0.758 | 0.936 | 1.134 | 1.35
m1 = 0.1798 | 0.489 | 0.6405 | 0.8135 | 1.008 | 1.224 | 1.46
m1 = 0.1991 | 0.519 | 0.6831 | 0.8715 | 1.08 | 1.316 | 1.57
m1 = 0.2177 | 0.547 | 0.724 | 0.927 | 1.15 | 1.405 | 1.68
m1 = 0.2366 | 0.576 | 0.766 | 0.984 | 1.228 | 1.5 | 1.78
m1 = 0.2557 | 0.605 | 0.809 | 1.043 | 1.303 | 1.59 | 1.89
